Source: patent publication US9265773B2, “Tetracyclic heterocycle compounds and methods of use thereof for the treatment of viral diseases” (priority 2011, dated 2016)

Experiments:
HCV replicon genotype 1b = test: microbe, parasite or virus in culture; assay type: cell-based; conditions: genotype 1b replicon cells, incubated 96 hours, NS3/4A ELISA readout
HCV replicon genotype 1a = test: microbe, parasite or virus in culture; assay type: cell-based; conditions: genotype 1a replicon cells, incubated 96 hours, NS3/4A ELISA readout

SMILES	IC50 (HCV replicon genotype 1b; Hepatitis C virus, 96 h) [nM]	IC50 (HCV replicon genotype 1a; Hepatitis C virus, 96 h) [nM]	IC50 (HCV replicon genotype 1b) [nM]	IC50 (HCV replicon genotype 1a) [nM]
CNC(=O)c1c(-c2ccc(F)cc2)oc2cc(N(C)S(C)(=O)=O)c(-c3nc4c(cc3OC)OCn3c-4cc4c(F)cccc43)cc12 [Compound 36]	7.1	1.7	–	–
CNC(=O)c1c(-c2ccc(F)cc2)oc2cc(N(C)S(C)(=O)=O)c(-c3ccc4c(n3)-c3cc5c(F)cccc5n3C(C)O4)cc12 (stereo not drawn) [Compound 37]	5.9	3.4	–	–
CNC(=O)c1c(-c2ccc(F)cc2)oc2cc(N(C)S(C)(=O)=O)c(-c3ccc4c(n3)-c3cc5c(F)cccc5n3C(C)O4)cc12 (stereo not drawn) [Compound 38]	–	–	5.8	3.2
CNC(=O)c1c(-c2ccc(F)cc2)oc2cc(N(C)S(C)(=O)=O)c(-c3ncc4c(n3)-c3cc5ccccc5n3CCCO4)cc12 [Compound 39]	1.8	2.4	–	–
CNC(=O)c1c(-c2ccc(F)cc2)oc2cc(N(C)S(C)(=O)=O)c(-c3ncc4c(n3)-c3cc5c(F)cccc5n3CCCO4)cc12 [Compound 40]	2.2	2	–	–
CNC(=O)c1c(-c2ccc(F)cc2)oc2cc(N(C)S(C)(=O)=O)c(-c3ccc4c(c3)-c3cc5ccccc5n3CCO4)cc12 [Compound 42, 5-(6,7-dihydrobenzo[6,7][1,4]oxazepino[4,5-a]indol-2-yl)-2-(4-fluorophenyl)-N-methyl-6-(N-methylmethylsulfonamido)benzofuran-3-carboxamide]	4.5	3.1	–	–
CNC(=O)c1c(-c2ccc(F)cc2)oc2cc(N(C)S(C)(=O)=O)c(-c3ccc4c(c3)-c3cc5c(F)cccc5n3CO4)cc12 [Compound 43, 5-(11-fluoro-6H-benzo[5,6][1,3]oxazino[3,4-a]indol-2-yl)-2-(4-fluorophenyl)-N-methyl-6-(N-methylmethylsulfonamido)benzofuran-3-carboxamide]	3.9	2.4	–	–
CNC(=O)c1c(-c2ccc(F)cc2)oc2cc(N(C)S(C)(=O)=O)c(-c3ccc4c(n3)-c3cc5ncccc5n3CO4)cc12 [Compound 44]	2.4	2.8	–	–
CNC(=O)c1c(-c2ccc(F)cc2)oc2cc(N(C)S(C)(=O)=O)c(-c3ccc4c(n3)-c3cc5nc(OC)ccc5n3CO4)cc12 [Compound 45, 2-(4-fluorophenyl)-5-(10-methoxy-6H-pyrido[2,3-e]pyrido[2′,3′:4,5]pyrrolo[1,2-c][1,3]oxazin-2-yl)-N-methyl-6-(N-methylmethylsulfonamido)benzofuran-3-carboxamide]	11	9.2	–	–
CNC(=O)c1c(-c2ccc(F)cc2)oc2cc(N(C)S(C)(=O)=O)c(-c3ccc4c(n3)-c3cc5c(F)cncc5n3CO4)cc12 [Compound 46, 5-(11-fluoro-6H-pyrido[2,3-e]pyrido[4′,3′:4,5]pyrrolo[1,2-c][1,3]oxazin-2-yl)-2-(4-fluorophenyl)-N-methyl-6-(N-methylmethylsulfonamido)benzofuran-3-carboxamide]	2.1	1.5	–	–
CNC(=O)c1c(-c2ccc(F)cc2)oc2cc(N(C)S(C)(=O)=O)c(-c3ccc4c(n3)-c3cc5c(C#N)nccc5n3CO4)cc12 [Compound 47]	1.8	1.2	–	–
CNC(=O)c1c(-c2ccc(F)cc2)oc2cc(N(C)S(C)(=O)=O)c(-c3ccc4c(n3)-c3cc5cccnc5n3CO4)cc12 [Compound 48, 2-(4-fluorophenyl)-N-methyl-6-(N-methylmethylsulfonamido)-5-(6H-pyrido[2,3-e]pyrido[3′,2′:4,5]pyrrolo[1,2-c][1,3]oxazin-2-yl)benzofuran-3-carboxamide]	2.6	2.2	–	–
CNC(=O)c1c(-c2ccc(F)cc2)oc2cc(N(C)S(C)(=O)=O)c(-c3ccc4c(c3)-c3cc5cccnc5n3CO4)cc12 [Compound 49]	1.7	0.6	–	–
CNC(=O)c1c(-c2ccc(F)cc2)oc2cc(N(C)S(C)(=O)=O)c(-c3cc4c(cn3)OCn3c-4cc4cccnc43)cc12 [Compound 50]	4.6	15	–	–
CNC(=O)c1c(-c2ccc(F)cc2)oc2cc(N(C)S(C)(=O)=O)c(-c3ccc4c(n3)-c3cc5c(F)cccc5n3C(c3ccccc3)O4)cc12 (stereo not drawn) [Compound 51, 5-(11-fluoro-6-phenyl-6H-pyrido[2′,3′:5,6][1,3]oxazino[3,4-a]indol-2-yl)-2-(4-fluorophenyl)-N-methyl-6-(N-methylmethylsulfonamido)benzofuran-3-carboxamide]	33	17	–	–
CNC(=O)c1c(-c2ccc(F)cc2)oc2cc(N(C)S(C)(=O)=O)c(-c3ccc4c(n3)-c3[nH]c5ncccc5c3CO4)cc12 [Compound 52, 5-(6,11-dihydropyrido[2″,3″:5′,6′]pyrano[3′,4′:4,5]pyrrolo[2,3-b]pyridin-2-yl)-2-(4-fluorophenyl)-N-methyl-6-[methyl(methylsulfonyl)amino]-1-benzofuran-3-carboxamide]	2.7	1.7	–	–
CNC(=O)c1c(-c2ccc(F)cc2)oc2cc(N(C)S(C)(=O)=O)c(-c3ccc4oc(=O)n5c6ccccc6cc5c4c3)cc12 [Compound 53, 2-(4-fluorophenyl)-N-methyl-6-(N-methylmethylsulfonamido)-5-(6-oxo-6H-benzo[5,6][1,3]oxazino[3,4-a]indol-2-yl)benzofuran-3-carboxamide]	7.9	8	–	–

SMILES	IC50 (HCV replicon genotype 1b; Hepatitis C virus, 96 h) [nM]	IC50 (HCV replicon genotype 1a; Hepatitis C virus, 96 h) [nM]	IC50 (HCV replicon genotype 1b) [nM]	IC50 (HCV replicon genotype 1a) [nM]
CNC(=O)c1c(-c2ccc(F)cc2)oc2cc(N(C)S(C)(=O)=O)c(-c3ccc4oc(=O)n5c6cccc(F)c6cc5c4n3)cc12 [Compound 54, 5-(11-fluoro-6-oxo-6H-pyrido[2′,3′:5,6][1,3]oxazino[3,4-a]indol-2-yl)-2-(4-fluorophenyl)-N-methyl-6-(N-methylmethylsulfonamido)benzofuran-3-carboxamide]	39	69	–	–
CNC(=O)c1c(-c2ccc(F)cc2)oc2cc(N(C)S(C)(=O)=O)c(-c3ccc4c(n3)-c3c(Cl)c5ccccc5n3CO4)cc12 [Compound 55, 5-(12-chloro-6H-pyrido[2′,3′:5,6][1,3]oxazino[3,4-a]indol-2-yl)-2-(4-fluorophenyl)-N-methyl-6-(N-methylmethylsulfonamido)benzofuran-3-carboxamide]	49	57	–	–
CNC(=O)c1c(-c2ccc(F)cc2)oc2cc(N(C)S(C)(=O)=O)c(-c3ccc4c(n3)-c3c(Cl)c5c(F)cccc5n3CO4)cc12 [Compound 56]	12	13	–	–
CNC(=O)c1c(-c2ccc(F)cc2)oc2cc(N(C)S(C)(=O)=O)c(-c3ccc4c(n3)-c3c(Cl)c5c(Cl)cccc5n3CO4)cc12 [Compound 57]	13	11	–	–
CNC(=O)c1c(-c2ccc(F)cc2)oc2cc(N(C)S(C)(=O)=O)c(-c3ccc4c(n3)-c3c(F)c5ccccc5n3CO4)cc12 [Compound 58, 5-(12-fluoro-6H-pyrido[2′,3′:5,6][1,3]oxazino[3,4-a]indol-2-yl)-2-(4-fluorophenyl)-N-methyl-6-(N-methylmethylsulfonamido)benzofuran-3-carboxamide]	8.7	13	–	–
CNC(=O)c1c(-c2ccc(F)cc2)oc2cc(N(C)S(C)(=O)=O)c(-c3ccc4c(n3)-c3c(F)c5c(F)cccc5n3CO4)cc12 [Compound 59]	4.2	2.5	–	–
CNC(=O)c1c(-c2ccc(F)cc2)oc2cc(N(C)S(C)(=O)=O)c(-c3ccc4c(n3)-c3c(C#N)c5ccccc5n3CO4)cc12 [Compound 60, 5-(12-cyano-6H-pyrido[2′,3′:5,6][1,3]oxazino[3,4-a]indol-2-yl)-2-(4-fluorophenyl)-N-methyl-6-(N-methylmethylsulfonamido)benzofuran-3-carboxamide]	31	69	–	–
CNC(=O)c1c(-c2ccc(F)cc2)oc2cc(N(C)S(C)(=O)=O)c(-c3ccc4c(c3)-c3[nH]c5ccccc5c3C(C)(C)O4)cc12 [Compound 61, 5-(6,6-dimethyl-6,11-dihydrochromeno[4,3-b]indol-2-yl)-2-(4-fluorophenyl)-N-methyl-6-(N-methylmethylsulfonamido)benzofuran-3-carboxamide]	11	6.5	–	–
CNC(=O)c1c(-c2ccc(F)cc2)oc2cc(N(C)S(C)(=O)=O)c(-c3ccc4c(c3)-c3[nH]c5ccccc5c3C(c3cccnc3)O4)cc12 (stereo not drawn) [Compound 62]	3.4	12	–	–
CNC(=O)c1c(-c2ccc(F)cc2)oc2cc(N(C)S(C)(=O)=O)c(-c3ccc4c(c3)-c3[nH]c5ccccc5c3C(c3ccccc3)O4)cc12 (stereo not drawn) [Compound 63, 2-(4-fluorophenyl)-N-methyl-6-(N-methylmethylsulfonamido)-5-(6-phenyl-6,11-dihydrochromeno[4,3-b]indol-2-yl)benzofuran-3-carboxamide]	83	92	–	–
CNC(=O)c1c(-c2ccc(F)cc2)oc2cc(N(C)S(C)(=O)=O)c(-c3ccc4c(c3)-c3[nH]c5ccccc5c3C(C(C)(C)C)O4)cc12 (stereo not drawn) [Compound 64]	44	71	–	–
CNC(=O)c1c(-c2ccc(F)cc2)oc2cc(N(C)S(C)(=O)=O)c(-c3ccc4c(c3)-c3[nH]c5ccccc5c3C3(CCCC3)O4)cc12 [Compound 65]	19	11	–	–
CNC(=O)c1c(-c2ccc(F)cc2)oc2cc(N(C)S(C)(=O)=O)c(-c3ccc4c(n3)-c3[nH]c5cccc(F)c5c3C(c3cccs3)O4)cc12 (stereo not drawn) [Compound 66, 5-(7-fluoro-6-(thiophen-2-yl)-6,11-dihydropyrido[2′,3′:5,6]pyrano[4,3-b]indol-2-yl)-2-(4-fluorophenyl)-N-methyl-6-(N-methylmethylsulfonamido)benzofuran-3-carboxamide]	59	49	–	–
CNC(=O)c1c(-c2ccc(F)cc2)oc2cc(N(C)S(C)(=O)=O)c(-c3ccc4c(n3)-c3[nH]c5cccc(F)c5c3C(c3nccs3)O4)cc12 (stereo not drawn) [Compound 67]	10	9.2	–	–
CNC(=O)c1c(-c2ccc(F)cc2)oc2cc(N(C)S(C)(=O)=O)c(-c3ccc4c(n3)-c3cc5c(CN)cccc5n3CO4)cc12 [Compound 68]	19	60	–	–
CNC(=O)c1c(-c2ccc(F)cc2)oc2cc(N(C)S(C)(=O)=O)c(-c3ccc4c(n3)-c3cc5cccc(CN)c5n3CO4)cc12 [Compound 69]	45	57	–	–
